The subject of assay [1] is A2780 ovarian cancer cells. Briefly: RNA disruption in drug-treated A2780 cells (Agilent Bioanalyzer electropherogram, RDI). The format is cell-based, human. The procedure:
RNA was isolated from ovarian cancer cell line A2780 cells which had been treated with 10 μM docetaxel in 50% media or 20 μM epirubicin, each in 50% media. Cells were treated with the chemotherapeutic for 24 hours at 37° C. Isolated RNA was separated by microcapillary electrophoresis using the Agilent 2100 Bioanalyzer.
Cells were plated and treated with docetaxel concentrations ranging from 0.001-40 μM for 24 to 72 hours to assess the effect on cell number, RNA content, and integrity (measured using a Bioanalyzer 2100 from Agilent Technologies, Inc.).
A2780 cells treated for up to 72 hours with docetaxel at 0.005 uM and 0.2 uM, were analyzed for the amount of RNA per cell. RNA was isolated and electophoretically separated using an Agilent Bioanalyzer.
RNA was isolated and electrophoretically separated on an Agilent Bioanalyzer. As shown in FIG. 24D bands appeared just below the 28S (e.g. intermediate) and 18S bands (e.g. low banding region) at 0.005 uM and peaked at 0.2 uM.
A time course experiment was conducted in A2780 cells. Cells were treated for up to 72 hours with docetaxel at 0.005 uM and 0.2 uM. RNA was isolated and run on an Agilent Bioanalyzer.
The effect of a caspase inhibitor on RNA integrity changes was next assessed. Cells were treated with or without docetaxel at a concentration of 0.2 uM in the presence or absence of the caspase inhibitor Q-DEVD-OPH (Biovision Laboratories) at a concentration of 10 uM.

The subject of another assay is parental A2780 cells. Kind of assay: Clonogenic assay, drug-sensitive parental cells. Format: cell-based. The following applies: Homo sapiens, 50% of colony formation suppressed. From the text: (§1) RDA like clonogenic assays can be used to identify drugs that are cytotoxic (FIG. 24C iv). […] The cell lines have widely differing sensitivity to docetaxel in a clonogenic assay, with IC50 values differing by over three orders of magnitude.

For assay [2], the system named is docetaxel-resistant A2780DXL cells. Kind of assay: Clonogenic assay, docetaxel-resistant cells. The format is cell-based. The conditions noted are these: 50% of colony formation suppressed.
Source text: (§2) A docetaxel A2780 resistant cell line was made as described in Li et al., Int. J. Mol. Med 2004 14(20): 257-264.
as §1

Assay [3] has the same test system. Kind of assay: RNA disruption in docetaxel-resistant cells. The format is cell-based. The following applies: docetaxel treatment. As to the method: as §2
A time course experiment was conducted. Sensitive parental and docetaxel resistant A2780 cells were treated with docetaxel for 24 hours. RNA was isolated and run on an Agilent Bioanalyzer.
The a\Ability of RDA to detect potentiators of docetaxel (Dxl) sensitivity. […] Thus, RDA may be used to screen for potentiators of chemotherapy drug cytotoxicity.

Assay [4] deals with CaOV3 ovarian tumour cell line. Briefly: Docetaxel-induced RNA disruption, CaOV3. Format: cell-based.
Assay [5] has as its system Jurkat leukemia cell line. Kind of assay: Docetaxel-induced RNA disruption, Jurkat. Format: cell-based.
In assay [6] the test system is A2780 ovarian tumour cell line. Kind of assay: Apoptosis markers in drug-treated cells (Annexin V-FITC, DNA content, PARP cleavage, caspase activity). The format is cell-based, human. The procedure:
Various cell lines were treated with anti-cancer agents and the effects of these treatments on the cellular RNA banding pattern, Annexin V-FITC binding to cells, cellular DNA content, poly ADP ribose polymerase (PARP) cleavage, and cell proliferation in the absence of drug post-treatment were assessed.

Another assay concerns A2780 cells. Briefly: Cell counts and Recovery Assay of A2780 cells after docetaxel.

Entries after “also recorded” stand apart in the source; their conditions may differ.

Usually IC50 stands for the midpoint of a concentration-inhibition curve. With `CC(=O)O[C@@]12CO[C@@H]1C[C@H](O)[C@@]1(C)C(=O)[C@H](O)C3=C(C)[C@@H](OC(=O)[C@H](O)[C@@H](NC(=O)OC(C)(C)C)c4ccccc4)C[C@@](O)([C@@H](OC(=O)c4ccccc4)[C@H]21)C3(C)C` [docetaxel], in assay [1] (0.005 uM and 0.2 uM, up to 72 hours), the “amount of RNA per cell” value was “increase in a time-dependent and dose-dependent manner”. For the same compound, the electropherogram pattern result in assay [1] (10 μM in 50% media, 24 hours, 37° C.) is “an intermediate peak and a peak adjacent to the 18S peak”. This compound came in with an RDI in assay [1] (0.2 micromolar, 72 hrs, 0.23 prior to drug) of 3.09. Besides, the RNA concentration result in assay [1] (0.2 micromolar, 72 hrs, 1220 prior to drug) is listed as “about 359 ng/microliter”. For the same compound, the “concentration at which the novel banding peaked” value in assay [1] (24 hours) was 0.2 µM. The “ratio of Low C Area/(28S+18S)” value in assay [1] (after 72 hr, little change at 8, 24 or 48 hr) is reported as “dramatic increase”. The RIN entry in assay [1] (concentrations ≥0.005 uM) was “did not change significantly”. Besides, the “concentration giving reductions in cell number and RIN and increased RDI” value in assay [1] (dose and time-dependent) is at least 0.1 µM. The “response of cells in culture to the agent” value in assay [1] (dose- and time-dependent) is recorded as “RNA disruption”. In addition, the IC50 with parental A2780 cells was about 1.1 nM. The compound further gave an IC50 in assay [2] of about 650 nM. For the same compound, in assay [3], the “RNA disruption / banding below 28S and 18S” value was “no banding is evident; also recorded: did not result in RNA disruption; also recorded: do not show docetaxel-induced RNA disruption”. Further, the “docetaxel-induced RNA disruption” value in assay [4] was “RNA disruption was also observed”. Moreover, in assay [5], the “docetaxel-induced RNA disruption” value is given as “RNA disruption was also observed”. Moreover, in assay [6], the “Annexin V-FITC binding” value is recorded as “enhance Annexin V-FITC binding to cells”, the DNA laddering entry was “no DNA laddering was observed”, the PARP cleavage result is “induce the cleavage of poly ADP ribose polymerase (PARP)” and the “cellular DNA content” value is reported as “generate cells containing a sub-G1 level of DNA content”. Further, the cellular caspase activity entry in assay [6] was “activated cellular caspase activity”. Further, the “membrane integrity (propidium iodide staining)” value in assay [6] (after drug-treatment) is on record as “lack of propiclium iodide staining”. Besides, in the assay on A2780 cells (5 nM), the “recovery in drug-free media” value is on record as “permitted cell recovery, but only when the incubation period was 48 hours or less”. Besides, the “recovery in drug-free media” value in the assay with A2780 cells (0.2 uM for up to 72 hours, washed and replated) is “No resumption of cell proliferation”. Moreover, the “concentrations at which cell numbers remained constant” value with A2780 cells (up to 72 hours) was “greater than or equal to 0.005 uM”.

These data come from patent publication US10731222B2 (RNA Diagnostics Inc., priority 2013, dated 2020).
